These results are taken from patent US20150038527A1, “FUROPYRIDINE DERIVATIVES” (Merck Patent GmbH, priority 2012, published 2015).

pIC50: −log10 of the molar value. Some results are limits rather than exact numbers.

This assay concerns the target T1, SYK (Homo sapiens, UniProt P43405).
T1 construct: 2.5 nM SYK, 400 nM Biotin-Aha-Aha-KEDPDYEWPSAKK and 10 μM ATP
In words: SYK Flash Plate Assay (enzyme assay). The format is biochemical. How it is done: The kinase assay is performed either as 384-well Flashplate assay (for e.g. Topcount measurement) or as 384-well Image-Flashplate assay (for LEADseeker measurement).
2.5 nM SYK, 400 nM Biotin-Aha-Aha-KEDPDYEWPSAKK and 10 μM ATP (spiked with 0.3 μCi 33P-ATP/well) are incubated in a total volume of 50 μl (60 mM Hepes, 10 mM MgCl2, 1.2 mM Dithiothreitol, 0.02% Brij35, 0.1% BSA, pH 7.5) with or without test compound for 1 hours at 30° C. The reaction is stopped with 25 μl 200 mM EDTA. After 30 Min at 30° C. the liquid is removed and each well washed thrice with 100 μl 0.9% sodium chloride solution. Non-specific reaction is determined in presence of 0.1 μM Staurosporine. Radioactivity is measured with Topcount (when using Flashplates) or with LEADseeker (when using Image-Flashplates) respectively. Results (e.g. IC50-values) are calculated with program tools provided by the IT-department (e.g. Symyx Assay Explorer, Genedata Screener).

The term pIC50 denotes the IC50 on a negative log10 scale, so that one unit is a factor of ten. Low values mean a high IC50, high ones a low IC50. In turn, `COc1cc(-c2cc3nccc(-c4cccc(C(=O)NC(C)(C)CO)c4)c3o2)cc(OC)c1OC` [Compound A40, N-(2-hydroxy-1,1-dimethyl-ethyl)-3-[2-(3,4,5-trimethoxy-phenyl)-furo[3,2-b]pyridin-7-yl]-benzamide] had a pIC50 of 5.52 to 6.52.

Turning to `COc1ccc(S(N)(=O)=O)cc1-c1cc2nccc(-c3c(OC)cccc3OC)c2o1` [Compound A78, 3-[7-(2,6-dimethoxy-phenyl)-furo[3,2-b]pyridin-2-yl]-4-methoxybenzenesulfonamide], the pIC50 was 5.52 to 6.52.

Take `COc1cc(-c2cc3nccc(-c4cccc(C(=O)NCC(O)CO)c4)c3o2)cc(OC)c1OC` (stereo not shown) [Compound A20, N-(2,3-dihydroxy-propyl)-3-[2-(3,4,5-trimethoxy-phenyl)-furo[3,2-b]pyridin-7-yl]-benzamide]: the pIC50 was 4.30 to 5.52.

Regarding `COc1cc(-c2cc3nccc(-c4cccc(C(=O)NCC(C)(C)N)c4)c3o2)cc(OC)c1OC` [Compound A32, N-(2-amino-2-methyl-propyl)-3-[2-(3,4,5-trimethoxy-phenyl)-furo[3,2-b]pyridin-7-yl]-benzamide], the pIC50 was 4.30 to 5.52.

As to `COc1cc(-c2cc3nccc(C(N)=O)c3o2)cc(OC)c1OC` [Compound A98, 2-(3,4,5-trimethoxy-phenyl)-furo[3,2-b]pyridine-7-carboxylic acid amide], the pIC50 was 5.52 to 6.52.

`COc1cccc(OC)c1-c1ccnc2cc(-c3cc(C(N)=O)ccc3N)oc12` [Compound A107, 4-amino-3-[7-(2,6-dimethoxy-phenyl)-furo[3,2-b]pyridin-2-yl]-benzamide]: the pIC50 is 6.52 to 7.00.

In turn, `CCc1ccc(OC)cc1-c1cc2nccc(-c3ccc4[nH]cnc4c3)c2o1` [Compound A36, 7-(1H-benzoimidazol-5-yl)-2-(2-ethyl-5-methoxy-phenyl)-furo[3,2-b]pyridine] had a negative-log IC50 (pIC50) of 4.30 to 5.52.

As to `COc1cc(-c2cc3nccc(-c4ccnc(O)c4)c3o2)cc(OC)c1OC` [Compound A39, 4-[2-(3,4,5-trimethoxy-phenyl)-furo[3,2-b]pyridin-7-yl]-pyridin-2-ol], the pIC50 is 5.52 to 6.52.

`COc1cc(-c2cc3nccc(-c4cccc(C(=O)NC[C@@H](O)CO)c4)c3o2)cc(OC)c1OC` [Compound A17, N—((R)-2,3-dihydroxy-propyl)-3-[2-(3,4,5-trimethoxy-phenyl)-furo[3,2-b]pyridin-7-yl]-benzamide] gave a negative-log IC50 (pIC50) of 4.30 to 5.52.

`COc1cc(-c2cc3nccc(-c4cc(OCCN)ccc4F)c3o2)cc(OC)c1OC` [Compound A44, 2-{4-fluoro-3-[2-(3,4,5-trimethoxy-phenyl)-furo[3,2-b]pyridin-7-yl]-phenoxy}-ethylamine] had a pIC50 of 5.52 to 6.52.

Turning to `COc1ccc(C(N)=O)cc1-c1cc2nccc(-c3cc[nH]n3)c2o1` [Compound A72, 4-methoxy-3-[7-(1H-pyrazol-3-yl)-furo[3,2-b]pyridin-2-yl]-benzamide], the negative-log IC50 (pIC50) is over 7.00.

Turning to `COc1cc(-c2cc3nccc(-c4cccc(C(=O)N[C@@H]5CCC[C@H]5O)c4)c3o2)cc(OC)c1OC` [Compound A12, N-((1R,2R)-2-hydroxy-cyclopentyl)-3-[2-(3,4,5-trimethoxy-phenyl)-furo[3,2-b]pyridin-7-yl]-benzamide], the pIC50 is 5.52 to 6.52.

`Cc1cc2[nH]ncc2cc1-c1cc2nccc(-c3cccc(C(=O)N[C@@H]4CCCC[C@@H]4N)c3)c2o1` [Compound A45, N-((1R,2S)-2-amino-cyclohexyl)-3-[2-(6-methyl-1H-indazol-5-yl)-furo[3,2-b]pyridin-7-yl]-benzamide]: the pIC50 was 5.52 to 6.52.

In turn, `COc1cc(-c2cc3nccc(-c4ccc(N(C)C)cc4)c3o2)cc(OC)c1OC` [Compound A65, dimethyl-{4-[2-(3,4,5-trimethoxy-phenyl)-furo[3,2-b]pyridin-7-yl]-phenyl}-amine] showed a pIC50 of 4.30 to 5.52.

The compound `COc1cc(-c2cc3nccc(-c4c(OC)cncc4OC)c3o2)cc(OC)c1OC` [Compound A103, 7-(3,5-dimethoxy-pyridin-4-yl)-2-(3,4,5-trimethoxy-phenyl)-furo[3,2-b]pyridine] had a pIC50 of over 7.00.

In turn, `COc1cc(-c2cc3nccc(-c4ccc5c(c4)ncn5CCN)c3o2)cc(OC)c1OC` [Compound A3, 2-{5-[2-(3,4,5-Trimethoxy-phenyl)-furo[3,2-b]pyridin-7-yl]-benzoimidazol-1-yl}-ethylamine] gave a pIC50 of 5.52 to 6.52.

The compound `COc1ccc(C(N)=O)cc1-c1cc2nccc(-c3c(OC)cncc3OC)c2o1` [Compound A104, 3-[7-(3,5-dimethoxy-pyridin-4-yl)-furo[3,2-b]pyridin-2-yl]-4-methoxybenzamide] showed a negative logarithm of the IC50 (pIC50) of 6.52 to 7.00.

The compound `COc1ccc(C(N)=O)cc1-c1cc2nccc(-c3c(OC)cc(C(=O)NCCN)cc3OC)c2o1` [Compound A76, N-(2-amino-ethyl)-4-[2-(5-carbamoyl-2-methoxy-phenyl)-furo[3,2-b]pyridin-7-yl]-3,5-dimethoxy-benzamide] gave a pIC50 of over 7.00.

The compound `COc1cc(-c2cc3nccc(NC(=O)NC4CCCCC4N)c3o2)cc(OC)c1OC` (stereo not shown) [Compound A75, 1-(2-amino-cyclohexyl)-3-[2-(3,4,5-trimethoxy-phenyl)-furo[3,2-b]pyridin-7-yl]-urea] had a negative logarithm of the IC50 (pIC50) of 4.30 to 5.52.

In turn, `COc1cc(-c2cc3nccc(-c4nnc(CCCN)[nH]4)c3o2)cc(OC)c1OC` [Compound A108, 3-{5-[2-(3,4,5-trimethoxy-phenyl)-furo[3,2-b]pyridin-7-yl]-4H-[1,2,4]triazol-3-yl}-propylamine] showed a pIC50 of 6.52 to 7.00.

The compound `COc1cc(-c2cc3nccc(-c4ccc5[nH]c(=O)n(CCN)c5c4)c3o2)cc(OC)c1OC` [Compound A6, 1-(2-amino-ethyl)-6-[2-(3,4,5-trimethoxy-phenyl)-furo[3,2-b]pyridin-7-yl]-1,3-dihydro-benzoimidazol-2-one] showed a pIC50 of 4.30 to 5.52.

`COc1ccc(-c2noc(CN)n2)cc1-c1cc2nccc(-c3c(OC)cccc3OC)c2o1` [Compound A106, C-(3-{3-[7-(2,6-dimethoxy-phenyl)-furo[3,2-b]pyridin-2-yl]-4-methoxy-phenyl}-[1,2,4]oxadiazol-5-yl)-methylamine] showed a pIC50 of over 7.00.

Turning to `COc1ccc(-c2ncon2)cc1-c1cc2nccc(-c3c(OC)cccc3OC)c2o1` [Compound A85, 7-(2,6-dimethoxy-phenyl)-2-(2-methoxy-5-[1,2,4]oxadiazol-3-yl-phenyl)furo[3,2-b]pyridine], the negative logarithm of the IC50 (pIC50) is over 7.00.

Take `COC[C@@H](CNC(=O)c1cccc(-c2ccnc3cc(-c4cc(OC)c(OC)c(OC)c4)oc23)c1)NS(C)(=O)=O` [Compound A10, N—((R)-2-methanesulfonylamino-3-methoxy-propyl)-3-[2-(3,4,5-trimethoxyphenyl)-furo[3,2-b]pyridin-7-yl]-benzamide]: the negative-log IC50 (pIC50) is 5.52 to 6.52.

`COc1cc(-c2cc3nccc(-c4cccc(C(=O)NCC(N)C5CC5)c4)c3o2)cc(OC)c1OC` (stereo not shown) [Compound A23, N-(2-amino-2-cyclopropyl-ethyl)-3-[2-(3,4,5-trimethoxy-phenyl)-furo[3,2-b]pyridin-7-yl]-benzamide] gave a pIC50 of 5.52 to 6.52.

In turn, `COC[C@H](N)CNC(=O)c1cccc(-c2ccnc3cc(-c4cc(OC)c(OC)c(OC)c4)oc23)c1` [Compound A5, N—((R)-2-amino-3-methoxy-propyl)-3-[2-(3,4,5-trimethoxy-phenyl)-furo[3,2-b]pyridin-7-yl]-benzamide] showed a negative logarithm of the IC50 (pIC50) of 5.52 to 6.52.

`COc1ccc(OCCN)cc1-c1cc2nccc(-c3cccc(C(=O)N[C@@H]4CCCC[C@@H]4N)c3)c2o1` [Compound A51, N-((1R,2S)-2-amino-cyclohexyl)-3-{2-[5-(2-amino-ethoxy)-2-methoxy-phenyl]-furo[3,2-b]pyridin-7-yl}-benzamide] had a negative logarithm of the IC50 (pIC50) of 5.52 to 6.52.

For the compound `COc1ccc(C(N)=O)cc1-c1cc2nccc(-c3cc4[nH]cnc4cc3OC)c2o1` [Compound A89, 4-Methoxy-3-[7-(6-methoxy-3H-benzoimidazol-5-yl)-furo[3,2-b]pyridin-2-yl]-benzamide], the pIC50 is 5.52 to 6.52.

In the case of `COc1ccc(C(N)=O)cc1-c1cc2nccc(-c3ccc4[nH]cnc4c3)c2o1` [Compound A9, 3-[7-(1H-benzoimidazol-5-yl)-furo[3,2-b]pyridin-2-yl]-4-methoxy-benzamide], the pIC50 is over 7.00.

In turn, `COc1cc(-c2cc3ncc(F)c(-c4cccc(C(=O)N[C@@H]5CCCC[C@@H]5N)c4)c3o2)cc(OC)c1OC` [Compound A47, N-((1R,2S)-2-amino-cyclohexyl)-3-[6-fluoro-2-(3,4,5-trimethoxy-phenyl)furo[3,2-b]pyridin-7-yl]-benzamide] gave a pIC50 of 5.52 to 6.52.

The compound `COc1cc(-c2cc3nccc(-c4nnc(C)o4)c3o2)cc(OC)c1OC` [Compound A99, 7-(5-methyl-[1,3,4]oxadiazol-2-yl)-2-(3,4,5-trimethoxy-phenyl)-furo[3,2-b]pyridine] gave a negative-log IC50 (pIC50) of 5.52 to 6.52.

`COc1cc(-c2cc3nccc(-c4cc5cn[nH]c5cc4C)c3o2)cc(OC)c1OC` [Compound A13, 7-(6-methyl-1H-indazol-5-yl)-2-(3,4,5-trimethoxy-phenyl)-furo[3,2-b]pyridine] showed a negative-log IC50 (pIC50) of 5.52 to 6.52.

Turning to `CCc1ccc(OC)c(-c2cc3nccc(-c4cc(CC)ccc4OC)c3o2)c1` [Compound A30, 2,7-bis-(5-ethyl-2-methoxy-phenyl)-furo[3,2-b]pyridine], the negative-log IC50 (pIC50) is 4.30 to 5.52.

The compound `COCC(O)CNC(=O)c1ccc(OC)c(-c2cc3nccc(-c4c(OC)cccc4OC)c3o2)c1` (stereo not shown) [Compound A69, 3-[7-(2,6-dimethoxy-phenyl)-furo[3,2-b]pyridin-2-yl]-N-(2-hydroxy-3-methoxypropyl)-4-methoxy-benzamide] gave a negative-log IC50 (pIC50) of 5.52 to 6.52.
